Here are results for 3 compounds from patent US20060210627A1, “Direct compression formulation and process” (priority 2005, published 2006).

Data set [1] in a line: Water sorption/desorption isotherm (dynamic vapor sorption, DVS-1). The format is physicochemical. To be noted: 25° C.; for moisture gain: at 85% RH. As for the experimental part: Measurements were carried out at 25° C.
Data set [2] can be described thus: Water solubility (statement). The class given is physicochemical.
The nature of data set [3]: clinical. To be noted: human, plasma, po.
Data set [4] is described as follows: Pharmacokinetic drug-drug interaction study of vildagliptin 100 mg qd and metformin 1000 mg qd in patients with type 2 diabetes. The settings on record: human, plasma, single oral dose of 100 mg, concomitantly with 1000 mg of metformin. The format is in vivo. As for the experimental part: Subjects are given an end-of-study evaluation on the last day of period 2 (Day 20). For all treatment periods, subjects fasted for a minimum of 10 hours pre-dose to 4 hours post-dose. Subjects are considered to have completed the study when all safety and pharmacokinetic evaluations have been completed.
The pharmacokinetic profiles are illustrated in FIG. 5.

Data set [5] is described as follows: clinical. The settings on record: human, plasma, po. The source holds these as a separate data set.

What is called Tmax is the time at which the peak concentration occurs. In general, AUC(0-t) refers to the area under the concentration-time curve up to a stated or last time point. Low values mean less exposure, high ones more exposure. In general, AUC(0-inf) refers to the area under the concentration-time curve extrapolated to infinity. Low values mean low exposure, high ones high exposure. The Cmax is the maximum level reached in the sampled fluid or tissue.

With `N#C[C@@H]1CCCN1C(=O)CNC12CC3CC(CC(O)(C3)C1)C2` [Crystalline vildagliptin Form A, 1-[(3-Hydroxy-adamant-1-ylamino)-acetyl]-pyrrolidine-2(S)-carbonitrile], in data set [1], the hygroscopicity entry is recorded as “only very slightly hygroscopic” and the moisture gain is 0.9%.

Turning to `N#C[C@@H]1CCCN1C(=O)CNC12CC3CC(CC(O)(C3)C1)C2` [vildagliptin amorphous form], in data set [1], the hygroscopicity result is given as “hygroscopic” and the moisture gain is listed as 4.2%.

With `N#C[C@@H]1CCCN1C(=O)CNC12CC3CC(CC(O)(C3)C1)C2` [vildagliptin, (S)-1-[(3-hydroxy-1-adamantyl)amino]acetyl-2-cyano-pyrrolidine], the water solubility result in data set [2] is given as “highly water soluble”. Besides, the Tmax in “clinical [3]” was determined as 1 h; in data set [4], 2.5 h; in “clinical [5]” (25 mg, tmax (h) median (min, max), single oral 25 mg FMI tablet, healthy volunteers) it was 1.5 h; in the data set “clinical [5]” (50 mg, arithmetic mean tmax of vildagliptin, single oral dose of 50 mg, healthy human subject) it was 2.1 h; in “clinical [5]” (50 mg, tmax (h) median (min, max), single oral 50 mg FMI tablet, healthy volunteers), 1.5 h; in the data set “clinical [5]” (100 mg, arithmetic mean tmax of vildagliptin, single oral dose of 100 mg, healthy human subject), 2 h. The Tmax in “clinical [5]” (100 mg, tmax (h) median (min, max), single oral 100 mg FMI tablet, healthy volunteers) stood at 1.75 h; in “clinical [5]” (200 mg, tmax (h) median (min, max), single oral 200 mg FMI tablet, healthy volunteers), 1.25 h. Moreover, the AUC(0-t) in data set [4] was found to be 1840 ng·h/mL; in the data set “clinical [5]” (25 mg), 453 ± 91 ng·h/mL; in “clinical [5]” (50 mg) it was 1020 ± 193 ng·h/mL; in “clinical [5]” (100 mg), 2330 ± 278 ng·h/mL; in “clinical [5]” (200 mg), 5060 ± 722 ng·h/mL. For the same compound, the AUC(0-inf) in “clinical [5]” (25 mg) was 461 ± 91 ng·h/mL; in “clinical [5]” (50 mg) it was 1030 ng·h/mL; in the data set “clinical [5]” (100 mg), 2350 ng·h/mL; in the data set “clinical [5]” (200 mg) it was 5080 ± 721 ng·h/mL. Further, the highest concentration (Cmax) in “clinical [5]” (25 mg) worked out at 117 ± 41 ng/mL; in “clinical [5]” (50 mg), 245 ± 87 ng/mL; in “clinical [5]” (200 mg), 1100 ± 280 ng/mL.
